US4800207A, “Hexahydropyrrolizine compounds useful as analgesics” (McNeilab, Inc., priority 1987, dated 1989)

Test system: Mouse Acetylcholine-Bromide-Induced Abdominal Constriction
Experiment: Mouse Acetylcholine-Bromide-Induced Abdominal Constriction Assay
Format: in vivo
Conditions: p.o. 30 minutes before 5.5 mg/kg i.p. acetylcholine bromide, ten minute observation; for % Inhibition 30 mg Kg (percent inhibition of writhing, % analgesia): at least 20 animals per group; for ED50: Mus musculus, po, four doses, probit analysis, read-out: ED50 (that dose which inhibits writhing by 50%)
Procedure: Mouse Acetylcholine-Bromide-Induced Abdominal Constriction Assay
The mouse acetylcholine-induced abdominal constriction assay, as described by Collier et al. in Brit. J. Pharmacol. Chemother, 32: 295-310, 1968, with minor modifications was one test used to assess analgesic potency. The test drugs or appropriate vehicle were administered p.o. and 30 minutes later the animals received an i.p. injection of 5.5 mg/kg acetylcholine bromide (Matheson, Coleman and Bell, East Rutherford, N.J.). The mice where then placed in groups of four into glass bell jars and observed for a ten minute observation period for the occurrence of a writhe which is defined as a wave of constriction and elongation passing caudally along the abdominal wall, accompanied by a twisting of the trunk and followed by extension of the hind limbs. The percent inhibition of writhing (equated to % analgesia) was calculated as follows: The % inhibition of writhing, i.e., % analgesia is equal to the difference between the number of control animals writhing and the number of drug-treated animals writhing times 100 divided by the number of control animals writhing.
At least 20 animals were used for control and in each of the drug treated groups. Four doses were used to determine each dose response curve and ED50 (that dose which inhibits writhing by 50%). The ED50 values and their 95% fiducial limits were determined by a computer assisted probit analysis.

Row | Structure (SMILES) | % Inhibition 30 mg Kg (percent inhibition of writhing, % analgesia) [%] | ED50 [mg/kg]
1 | Brc1ccccc1C1CCC2CCCN21 (single isomer, unassigned) [2f (diasteriomer A), 3-(2-bromophenyl)hexahydro-1H-pyrrolizine] | 60 | –
2 | Brc1ccccc1C1CCC2CCCN21 (single isomer, unassigned) [2f (diasteriomer B), 3-(2-bromophenyl)hexahydro-1H-pyrrolizine] | 100 | 8.7
3 | c1ccc(C2CCC3CCCN32)cc1 (stereo not drawn) [Example 1, Hexahydro-3-phenyl-1H-pyrrolizine] | 100 | 5.7
4 | Cc1ccc(C2CCC3CCCN32)cc1 (stereo not drawn) [Example 3d, Hexahydro-3-(4-methylphenyl)-1H-pyrrolizine] | 100 | –
